# Structures can show the parent of a compound that is named as a salt.
# Molecular target: T1, human mGluR4 (hmGluR4) (Homo sapiens, UniProt Q14833)
# T1 construct: expressed in transfected cells; host or cells: HEK-293 cells, transient co-transfection by electroporation
# Assay: Calcium assay EC50 determination, positive allosteric modulator activity on hmGluR4 transiently over-expressed in HEK-293 cells
# Assay type: cell-based
# Conditions: PAM mode with EC20 glutamate; hmGluR4 in HEK-293 cells; intracellular calcium (Fluo4AM); read-out: mGluR4 positive allosteric modulator activity, half maximal effective concentration (EC50)
# Experimental: Compounds are tested successively for their agonist and positive allosteric modulator activities on human mGluR4 (hmGluR4) transiently over-expressed in HEK-293 cells. Compounds exert agonist activity if, by themselves in absence of glutamate, they are able to activate hmGluR4; and they exert positive allosteric modulator activity if they increase the action of glutamate.
# HEK-293 cells are maintained in Modified Eagle's Medium supplemented with 10% Foetal Calf Serum, 1% Penicillin/Streptomycin and 1% non-essential amino acids at 37° C./5% CO2.
# Cells are co-transfected by electroporation with four DNA plasmids encoding hmGluR4, a chimeric G protein allowing redirection of the activation signal to intracellular calcium pathway, and glutamate transporters to decrease extracellular glutamate concentration so as to limit receptor desensitization. After transfection, cells are cultured for 24 h at 37° C./5% CO2.
# Calcium Assay EC50 determination
# Receptor activity is detected by changes in intracellular calcium measured using the fluorescent Ca^2+ sensitive dye, Fluo4AM (Molecular Probes).
# On the day of the assay, culture medium is aspirated and replaced during 3 hours by medium without serum supplemented with 1% Glutamax, 1% Penicillin/Streptomycin and 1% non-essential amino acids. Then, cells are washed with freshly prepared buffer B (HBSS 1× (PAA), Hepes 20 mM, MgSO4-7H2O 1 mM, Na2CO3 3.3 mM, CaCl2-2H2O 1.3 mM, 0.1% BSA, Probenecid 2.5 mM) and loaded at 37° C. in 5% CO2 for 1.5 hours with buffer B containing 1 μM Fluo4AM, 0.1 mg/mL Pluronic Acid, 7 μg/mL Glutamate Pyruvate Transaminase and 2 mM sodium pyruvate. Afterwards cells are washed twice with buffer B. Then cells are detached using StemPro Accutase (Fisher Scientific), resuspended in buffer B and seeded in 384 well plate at a density of 30,000 cells per well. Addition of compounds and intracellular Ca^2+ measurements (excitation 485 nm, emission 525 nm) are performed by the fluorescence microplate reader FLIP^Tetra (Molecular Devices).
# Agonist and positive allosteric modulator activities of compounds are consecutively evaluated on the same cell plate. Agonist activity is first tested during 10 minutes with the addition of compound alone on the cells. Then, cells are stimulated by an EC20 glutamate concentration and fluorescence is recorded for additional 3 minutes. EC20 glutamate concentration is the concentration giving 20% of the maximal glutamate response. Agonist or positive allosteric modulator activity(ies) are evaluated in comparison to basal signals evoked by buffer B or EC20 glutamate alone, respectively.
# T1 sequence (Q14833 33-912): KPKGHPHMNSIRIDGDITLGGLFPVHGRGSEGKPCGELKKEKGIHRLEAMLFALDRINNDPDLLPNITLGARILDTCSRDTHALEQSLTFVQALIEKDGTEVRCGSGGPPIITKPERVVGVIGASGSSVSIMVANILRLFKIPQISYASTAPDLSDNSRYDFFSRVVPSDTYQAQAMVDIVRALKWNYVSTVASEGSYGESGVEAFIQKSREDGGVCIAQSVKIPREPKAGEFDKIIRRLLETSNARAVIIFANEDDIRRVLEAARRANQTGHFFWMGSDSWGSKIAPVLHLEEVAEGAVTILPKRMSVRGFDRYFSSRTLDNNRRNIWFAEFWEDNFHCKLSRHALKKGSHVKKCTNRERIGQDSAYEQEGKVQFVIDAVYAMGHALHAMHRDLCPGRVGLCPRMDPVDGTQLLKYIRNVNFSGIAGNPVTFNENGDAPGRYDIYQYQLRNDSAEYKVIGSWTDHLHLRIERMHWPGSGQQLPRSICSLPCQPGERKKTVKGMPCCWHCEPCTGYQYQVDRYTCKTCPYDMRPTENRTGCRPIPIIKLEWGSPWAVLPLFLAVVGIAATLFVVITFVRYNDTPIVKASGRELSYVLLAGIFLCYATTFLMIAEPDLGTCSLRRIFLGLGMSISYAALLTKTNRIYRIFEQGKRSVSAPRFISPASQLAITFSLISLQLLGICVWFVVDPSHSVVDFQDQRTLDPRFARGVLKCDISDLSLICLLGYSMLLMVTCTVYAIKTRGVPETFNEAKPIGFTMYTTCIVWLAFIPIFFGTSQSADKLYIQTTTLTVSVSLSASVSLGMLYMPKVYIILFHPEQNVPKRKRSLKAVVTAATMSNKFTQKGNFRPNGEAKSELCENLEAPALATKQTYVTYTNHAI
row,EC50 [µM],SMILES
1,≤ 0.1,"COC1CCN(Cc2cc(C)c3nc(-c4cc5sccc5cn4)[nH]c(=O)c3c2)CC1 [Compound 152, 6-[(4-Methoxy-1-piperidyl)methyl]-8-methyl-2-thieno[3,2-c]pyridin-6-yl-3H-quinazolin-4-one hydrochloride]"
2,≤ 0.1,"Cc1cc(O[C@H]2CCN(C3COC3)C2)cc2c(=O)[nH]c(-c3cc4ccsc4cn3)nc12 [Compound 83-S, S-8-Methyl-6-(1-oxetan-3-yl-pyrrolidin-3-yloxy)-2-thieno[2,3-c]pyridin-5-yl-3H-quinazolin-4-one]"
3,≤ 0.1,"Cc1cc(OCC2CCN(C3COC3)CC2)cc2c(=O)[nH]c(-c3cc4ccsc4cn3)nc12 [Compound 86, 8-Methyl-6-(1-oxetan-3-yl-piperidin-4-ylmethoxy)-2-thieno[2,3-c]pyridin-5-yl-3H-quinazolin-4-one]"
4,≤ 0.1,"Cc1cc(OCC2CCOC2)cc2c(=O)[nH]c(-c3cc4ccsc4cn3)nc12 (stereo not drawn) [Compound 80, 8-Methyl-6-(tetrahydro-furan-3-ylmethoxy)-2-thieno[2,3-c]pyridin-5-yl-3H-quinazolin-4-one]"
5,1 to 10,"Cc1cc(CN2CCN(C)CC2)cc2c(=O)[nH]c(-c3cc4ccsc4cn3)nc12 [Compound 132, 8-Methyl-6-[(4-methylpiperazin-1-yl)methyl]-2-thieno[2,3-c]pyridin-5-yl-3H-quinazolin-4-one dihydrochloride]"
6,0.1 to 1,"CCC(=O)N1CC[C@H](Oc2cc(C)c3nc(-c4cc5ccsc5cn4)[nH]c(=O)c3c2)C1 (stereo in doubt) [Compound 82-R, R-8-Methyl-6-(1-propionyl-pyrrolidin-3-yloxy)-2-thieno[2,3-c]pyridin-5-yl-3H-quinazolin-4-one]"
7,≤ 0.1,"Cc1cc(N2CCC3(CCOCC3)C2)cc2c(=O)[nH]c(-c3cc4ccsc4cn3)nc12 [Compound 93, 8-Methyl-6-(8-oxa-2-aza-spiro[4.5]dec-2-yl)-2-thieno[2,3-c]pyridin-5-yl-3H-quinazolin-4-one]"
8,≤ 0.1,"Cc1cc(OC2CCN(C3COC3)CC2)cc2c(=O)[nH]c(-c3cc4cccn4cn3)nc12 [Compound 109, 8-methyl-6-(1-oxetan-3-yl-piperidin-4-yloxy)-2-pyrrolo[1,2-c]pyrimidin-3-yl-3H-quinazolin-4-one]"
9,0.1 to 1,"Cc1cc(O[C@@H]2CCN(C3COC3)C2)cc2c(=O)[nH]c(-c3cc4ccsc4cn3)nc12 [Compound 83-R, R-8-Methyl-6-(1-oxetan-3-yl-pyrrolidin-3-yloxy)-2-thieno[2,3-c]pyridin-5-yl-3H-quinazolin-4-one]"
10,≤ 0.1,"Cc1cc(OC[C@H]2CCOC2)cc2c(=O)[nH]c(-c3cc4ccsc4cn3)nc12 [Compound 80-S, S-8-Methyl-6-(tetrahydro-furan-3-ylmethoxy)-2-thieno[2,3-c]pyridin-5-yl-3H-quinazolin-4-one]"
11,≤ 0.1,"Cc1cc(O[C@H](C)C2CCOCC2)cc2c(=O)[nH]c(-c3cc4ccsc4cn3)nc12 [Compound 110-R, R-8-Methyl-6-[1-(tetrahydro-pyran-4-yl)-ethoxy]-2-thieno[2,3-c]pyridin-5-yl-3H-quinazolin-4-one]"
12,0.1 to 1,"Cc1cc(OC2CCN(C3COC3)CC2)cc2c(=O)[nH]c(-c3cc(C(F)(F)F)ccn3)nc12 [Compound 104, 8-Methyl-6-(1-oxetan-3-yl-piperidin-4-yloxy)-2-(4-trifluoromethyl-pyridin-2-yl)-3H-quinazolin-4-one]"
13,≤ 0.1,"CCC(=O)N1CC[C@H](Oc2cc(C)c3nc(-c4cc5ccsc5cn4)[nH]c(=O)c3c2)C1 [Compound 82-S, S-8-Methyl-6-(1-propionyl-pyrrolidin-3-yloxy)-2-thieno[2,3-c]pyridin-5-yl-3H-quinazolin-4-one]"
14,≤ 0.1,"Cc1cc(OCC2CCN(S(C)(=O)=O)CC2)cc2c(=O)[nH]c(-c3cc4ccsc4cn3)nc12 [Compound 88, 6-(1-Methanesulfonyl-piperidin-4-ylmethoxy)-8-methyl-2-thieno[2,3-c]pyridin-5-yl-3H-quinazolin-4-one]"

# Continued, molecule first:
row,SMILES,EC50 [µM]
1,"Cc1cc(C(=O)N2CCOCC2)cc2c(=O)[nH]c(-c3cc4cccn4cn3)nc12 [Compound 135, 8-Methyl-6-(morpholine-4-carbonyl)-2-pyrrolo[1,2-c]pyrimidin-3-yl-3H-quinazolin-4-one]",0.1 to 1
2,"Cc1cc(CCN2CCOCC2)cc2c(=O)[nH]c(-c3cc4cccn4cn3)nc12 [Compound 124, 8-Methyl-6-(2-morpholin-4-yl-ethyl)-2-pyrrolo[1,2-c]pyrimidin-3-yl-3H-quinazolin-4-one hydrochloride]",≤ 0.1
3,"O=c1[nH]c(-c2cc3sccc3cn2)nc2ccc(OCc3ccc(Br)cc3)cc12 [Compound 24, 6-(4-Bromo-benzyloxy)-2-thieno[3,2-c]pyridin-6-yl-3H-quinazolin-4-one]",> 10
4,"Cc1cc(CN2CCOC(C)(C)C2)cc2c(=O)[nH]c(-c3cc4sccc4cn3)nc12 [Compound 153, 6-[(2,2-Dimethylmorpholin-4-yl)methyl]-8-methyl-2-thieno[3,2-c]pyridin-6-yl-3H-quinazolin-4-one hydrochloride]",≤ 0.1
5,"Cc1cc(OCC2CCOC2)cc2c(=O)[nH]c(-c3cc(C(F)(F)F)ccn3)nc12 (stereo not drawn) [Compound 102, 8-Methyl-6-(tetrahydro-furan-3-ylmethoxy)-2-(4-trifluoromethyl-pyridin-2-yl)-3H-quinazolin-4-one]",≤ 0.1
6,"CC(=O)N1CCC(COc2ccc3nc(-c4cc(C(F)(F)F)ccn4)[nH]c(=O)c3c2)CC1 [Compound 44, 6-(1-Acetyl-piperidin-4-ylmethoxy)-2-(4-trifluoromethyl-pyridin-2-yl)-3H-quinazolin-4-one]",0.1 to 1
7,"O=c1[nH]c(-c2cc3ccsc3cn2)nc2c(Cl)cc(OCCCc3ccncc3)cc12 [Compound 72, 8-Chloro-6-(3-pyridin-4-yl-propoxy)-2-thieno[2,3-c]pyridin-5-yl-3H-quinazolin-4-one hydrochloride]",0.1 to 1
8,"O=c1[nH]c(-c2cc3sccc3cn2)nc2ccc(OCCc3cccnc3)cc12 [Compound 23, 6-(2-Pyridin-3-yl-ethoxy)-2-thieno[3,2-c]pyridin-6-yl-3H-quinazolin-4-one hydrochloride]",0.1 to 1
9,"O=c1[nH]c(-c2cc(C(F)(F)F)ccn2)nc2ccc(OCCC3CCOCC3)cc12 [Compound 58, 6-[2-(Tetrahydro-pyran-4-yl)-ethoxy]-2-(4-trifluoromethyl-pyridin-2-yl)-3H-quinazolin-4-one]",0.1 to 1
10,"CCC(=O)N1CCC(Oc2ccc3nc(-c4cc5sccc5cn4)[nH]c(=O)c3c2)CC1 [Compound 32, 6-(1-Propionyl-piperidin-4-yloxy)-2-thieno[3,2-c]pyridin-6-yl-3H-quinazolin-4-one]",0.1 to 1
11,"Cc1cc(O[C@H]2CC(=O)N(C)C2)cc2c(=O)[nH]c(-c3cc4sccc4cn3)nc12 [Compound 140-S, 8-Methyl-6-[(3S)-1-methyl-5-oxo-pyrrolidin-3-yl]oxy-2-thieno[3,2-c]pyridin-6-yl-3H-quinazolin-4-one]",≤ 0.1
12,"O=c1[nH]c(-c2cc3ccsc3cn2)nc2ccc(OCCCc3ccncc3)nc12 [Compound 66, 6-(3-Pyridin-4-yl-propoxy)-2-thieno[2,3-c]pyridin-5-yl-3H-pyrido[3,2-d]pyrimidin-4-one hydrochloride]",0.1 to 1
13,"CCc1cc(OCCCc2ccncc2)cc2c(=O)[nH]c(-c3cc4ccsc4cn3)nc12 [Compound 74, 8-Ethyl-6-(3-pyridin-4-yl-propoxy)-2-thieno[2,3-c]pyridin-5-yl-3H-quinazolin-4-one hydrochloride]",0.1 to 1
14,"Cc1cc(CCCOc2ccc3nc(-c4cc5ccsc5cn4)[nH]c(=O)c3c2)ccn1 [Compound 63, 6-[3-(2-Methyl-pyridin-4-yl)-propoxy]-2-thieno[2,3-c]pyridin-5-yl-3H-quinazolin-4-one hydrochloride]",0.1 to 1
15,"Cc1ccnc(-c2nc3ccc(OCCCc4ccncc4)cc3c(=O)[nH]2)c1 [Compound 11, 2-(4-methyl-2-pyridyl)-6-[3-(4-pyridyl)propoxy]-3H-quinazolin-4-one dihydrochloride]",0.1 to 1
16,"CC(=O)N1CCC(Oc2ccc3nc(-c4ccccn4)[nH]c(=O)c3c2)CC1 [Compound 41, 6-(1-Acetyl-piperidin-4-yloxy)-2-pyridin-2-yl-3H-quinazolin-4-one]",> 10
